# Measured values reported in patent US20260152498A1, “4,5,6,7-TETRAHYDRO-1H-PYRAZOLO[4,3-c]PYRIDINE COMPOUNDS AND DERIVATIVES AS USP1 INHIBITORS” (EXELIXIS, INC., priority 2022, published 2026).
# What was measured:
# [1] = molecular target: T1, USP1-UAF1 complex (Homo sapiens, UniProt O94782); settings: 1.2 µM
# Experimental: (§1) Biochemical Assay: The compounds were evaluated for their potential to inhibit USP1-UAF1 complex (Boston Biochem, Catalog: E568-050) using a fluorescence-based assay. The final concentrations of USP1-UAF1 complex protein and substrate Ubiquitin-Rhodamine-110 (R&D systems, Catalog U-555-050) used in the assay were 0.45 and 150 nM respectively. 50 mM HEPES pH. 7.5, 100 mM NaCl, 0.5 mM EDTA, 1 mM TCEP, 10% BSA, 0.01% Tween 20 buffer was used in the assay. The total assay volume was 20 μL. […] The final DMSO concentration in the assay was 1%. The compounds were pre-incubated with USP1-UAF1 complex at 25° C. for 15 min. After preincubation, required concentration of substrate was added and incubated at 25° C. for 60 min. Fluorescence at Excitation: 485 nm, Emission: 535 nm was measured in Victor-5 from Perkin Elmer.
# (§2) To determine IC50 values, dose response curves were generated by plotting percentage inhibition as a function of inhibitor concentration and the data was fitted to sigmoidal non-linear regression equation (variable slope) using Graph Pad prism software V8.
# (§3) The compounds were screened by the above-mentioned assay procedure.
# [2] = molecular target: T1, USP1-UAF1 complex; test: biochemical
# Experimental: as §1, §2, §3
# T1 sequence (O94782 whole entry): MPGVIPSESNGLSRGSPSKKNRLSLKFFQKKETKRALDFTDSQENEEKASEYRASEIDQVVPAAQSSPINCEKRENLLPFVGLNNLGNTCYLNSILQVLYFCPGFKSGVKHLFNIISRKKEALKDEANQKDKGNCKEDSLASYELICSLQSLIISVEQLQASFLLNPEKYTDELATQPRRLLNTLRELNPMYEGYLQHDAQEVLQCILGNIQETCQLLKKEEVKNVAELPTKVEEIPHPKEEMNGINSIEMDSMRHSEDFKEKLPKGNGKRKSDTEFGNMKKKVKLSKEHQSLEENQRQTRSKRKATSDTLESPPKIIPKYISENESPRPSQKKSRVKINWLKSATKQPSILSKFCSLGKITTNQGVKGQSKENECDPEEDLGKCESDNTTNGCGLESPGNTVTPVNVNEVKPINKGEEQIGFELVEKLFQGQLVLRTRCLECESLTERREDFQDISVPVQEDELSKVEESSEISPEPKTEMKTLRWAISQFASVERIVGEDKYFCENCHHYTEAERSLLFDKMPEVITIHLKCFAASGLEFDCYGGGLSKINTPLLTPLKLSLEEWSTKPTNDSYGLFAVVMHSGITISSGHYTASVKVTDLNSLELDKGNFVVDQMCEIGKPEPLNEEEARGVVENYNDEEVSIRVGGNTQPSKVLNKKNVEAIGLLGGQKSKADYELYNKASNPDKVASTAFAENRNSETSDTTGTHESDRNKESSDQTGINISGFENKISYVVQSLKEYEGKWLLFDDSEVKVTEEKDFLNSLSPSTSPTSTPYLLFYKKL
# T1 sequence (Q8TAF3 whole entry partner): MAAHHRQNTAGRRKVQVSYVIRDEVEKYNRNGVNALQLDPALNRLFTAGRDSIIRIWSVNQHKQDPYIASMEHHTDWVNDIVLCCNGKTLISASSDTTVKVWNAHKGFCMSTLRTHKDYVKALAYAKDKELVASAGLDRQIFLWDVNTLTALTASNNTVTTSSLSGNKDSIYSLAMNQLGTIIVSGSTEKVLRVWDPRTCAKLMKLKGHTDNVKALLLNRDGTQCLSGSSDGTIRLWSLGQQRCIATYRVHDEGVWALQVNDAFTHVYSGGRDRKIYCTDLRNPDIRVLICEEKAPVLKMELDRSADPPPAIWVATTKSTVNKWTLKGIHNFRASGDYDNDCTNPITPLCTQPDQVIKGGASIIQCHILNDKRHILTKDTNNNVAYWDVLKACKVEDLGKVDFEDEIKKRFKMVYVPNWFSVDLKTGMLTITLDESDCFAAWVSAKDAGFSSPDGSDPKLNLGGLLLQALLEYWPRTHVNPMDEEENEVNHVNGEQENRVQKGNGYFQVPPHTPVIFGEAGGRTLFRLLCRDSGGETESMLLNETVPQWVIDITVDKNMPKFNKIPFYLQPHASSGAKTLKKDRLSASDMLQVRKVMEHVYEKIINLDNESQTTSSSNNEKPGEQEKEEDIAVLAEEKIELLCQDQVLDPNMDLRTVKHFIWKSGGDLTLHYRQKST
SMILES,inhibition [1] [%],IC50 [2] [nM]
"COc1ncnc(C2CC2)c1-c1nn(C)c2c1CN(c1cnc(-n3nc(C(F)(F)F)cc3C)nc1)CC2 [Compound 51, 3-(4-cyclopropyl-6-methoxypyrimidin-5-yl)-1-methyl-5-(2-(5-methyl-3-(trifluoromethyl)-1H-pyrazol-1-yl)pyrimidin-5-yl)-4,5,6,7-tetrahydro-1H-pyrazolo[4,3-c]pyridine]",95,50 to 100
"COc1ncnc(C2CC2)c1-c1nn(C)c2c1CN(c1ccc(-c3nn(C)c4c3CN(C)CC4)cc1)CC2 [Compound 53, 3-(4-cyclopropyl-6-methoxypyrimidin-5-yl)-5-(4-(1,5-dimethyl-4,5,6,7-tetrahydro-1H-pyrazolo[4,3-c]pyridin-3-yl)phenyl)-1-methyl-4,5,6,7-tetrahydro-1H-pyrazolo[4,3-c]pyridine]",42,> 100
"COc1ncnc(C2CC2)c1-c1n[nH]c2c1CN(c1ccc(-c3nc(C(F)(F)F)cn3C)cn1)CC2 [Compound 54, 3-(4-cyclopropyl-6-methoxypyrimidin-5-yl)-5-(5-(1-methyl-4-(trifluoromethyl)-1H-imidazol-2-yl)pyridin-2-yl)-4,5,6,7-tetrahydro-1H-pyrazolo[4,3-c]pyridine]",91,> 100
"COc1ncnc(C2CC2)c1-c1nn(C)c2c1CN(c1ccc(-c3nc(C(F)(F)F)cn3C3CNC3)cc1)CC2 [Compound 55, 5-(4-(1-(azetidin-3-yl)-4-(trifluoromethyl)-1H-imidazol-2-yl)phenyl)-3-(4-cyclopropyl-6-methoxypyrimidin-5-yl)-1-methyl-4,5,6,7-tetrahydro-1H-pyrazolo[4,3-c]pyridine]",87,> 100
"COc1ncnc(C2CC2)c1-c1nn(C)c2c1CN(c1ccc(-c3nn(C)c4c3CNCC4)cc1)CC2 [Compound 56, 3-(4-cyclopropyl-6-methoxypyrimidin-5-yl)-1-methyl-5-(4-(1-methyl-4,5,6,7-tetrahydro-1H-pyrazolo[4,3-c]pyridin-3-yl)phenyl)-4,5,6,7-tetrahydro-1H-pyrazolo[4,3-c]pyridine]",5,> 100
"CCOc1ncnc(C2CC2)c1-c1nn(C)c2c1CN(c1ccc(-c3nc(C(F)(F)F)cn3C)cc1)CC2 [Compound 58, 3-(4-cyclopropyl-6-ethoxypyrimidin-5-yl)-1-methyl-5-(4-(1-methyl-4-(trifluoromethyl)-1H-imidazol-2-yl)phenyl)-4,5,6,7-tetrahydro-1H-pyrazolo[4,3-c]pyridine]",98,< 50
"COc1nccc(C2CC2)c1-c1nn(C)c2c1CN(c1ccc(-c3nc(C(F)(F)F)cn3C)cc1)CC2 [Compound 60, 3-(4-cyclopropyl-2-methoxypyridin-3-yl)-1-methyl-5-(4-(1-methyl-4-(trifluoromethyl)-1H-imidazol-2-yl)phenyl)-4,5,6,7-tetrahydro-1H-pyrazolo[4,3-c]pyridine]",92,< 50
"Cc1cnn(C(C)C)c1-c1nn(C)c2c1CN(c1ccc(-c3nc(C(F)(F)F)cn3C)cc1)CC2 [Compound 61, 3-(1-isopropyl-4-methyl-1H-pyrazol-5-yl)-1-methyl-5-(4-(1-methyl-4-(trifluoromethyl)-1H-imidazol-2-yl)phenyl)-4,5,6,7-tetrahydro-1H-pyrazolo[4,3-c]pyridine]",98,< 50
"Cc1cnn(C(C)C)c1-c1nn(C)c2c1CN(c1ccc(-c3nc(C(F)(F)F)cn3C)nc1)CC2 [Compound 62, 3-(1-isopropyl-4-methyl-1H-pyrazol-5-yl)-1-methyl-5-(6-(1-methyl-4-(trifluoromethyl)-1H-imidazol-2-yl)pyridin-3-yl)-4,5,6,7-tetrahydro-1H-pyrazolo[4,3-c]pyridine]",95,50 to 100

# Continued, values first:
inhibition [1] [%],IC50 [2] [nM],SMILES
14,> 100,"COc1ncnc(C2CC2)c1-c1nn(C)c2c1CN(c1csc(-c3nc(C(F)(F)F)cn3C)c1)CC2 [Compound 49, 3-(4-cyclopropyl-6-methoxypyrimidin-5-yl)-1-methyl-5-(5-(1-methyl-4-(trifluoromethyl)-1H-imidazol-2-yl)thiophen-3-yl)-4,5,6,7-tetrahydro-1H-pyrazolo[4,3-c]pyridine]"
20,> 100,"COc1ncnc(C2CC2)c1-c1nn(C)c2c1CN(c1csc(-c3nc(C(F)(F)F)cn3C)n1)CC2 [Compound 50, 4-(3-(4-cyclopropyl-6-methoxypyrimidin-5-yl)-1-methyl-1,4,6,7-tetrahydro-5H-pyrazolo[4,3-c]pyridin-5-yl)-2-(1-methyl-4-(trifluoromethyl)-1H-imidazol-2-yl)thiazole]"
96,50 to 100,"COc1ncnc(C2CC2)c1-c1nn(C)c2c1CN(c1cnc(-c3nc(C(F)(F)F)cn3C)cn1)CC2 [Compound 52, 3-(4-cyclopropyl-6-methoxypyrimidin-5-yl)-1-methyl-5-(5-(1-methyl-4-(trifluoromethyl)-1H-imidazol-2-yl)pyrazin-2-yl)-4,5,6,7-tetrahydro-1H-pyrazolo[4,3-c]pyridine]"
87,> 100,"CCc1cc(N2CCc3c(c(-c4c(OC)ncnc4C4CC4)nn3C)C2)ccc1-c1nc(C(F)(F)F)cn1C [Compound 57, 3-(4-cyclopropyl-6-methoxypyrimidin-5-yl)-5-(3-ethyl-4-(1-methyl-4-(trifluoromethyl)-1H-imidazol-2-yl)phenyl)-1-methyl-4,5,6,7-tetrahydro-1H-pyrazolo[4,3-c]pyridine]"
95,50 to 100,"COc1ncnc(C2CC2)c1-c1nn(C)c2c1CN(c1ncc(-c3nc(C(F)(F)F)cn3C)cn1)CC2 [Compound 59, 3-(4-cyclopropyl-6-methoxypyrimidin-5-yl)-1-methyl-5-(5-(1-methyl-4-(trifluoromethyl)-1H-imidazol-2-yl)pyrimidin-2-yl)-4,5,6,7-tetrahydro-1H-pyrazolo[4,3-c]pyridine]"
